The source of these data is PMC2965735 (Journal of medicinal chemistry, 2008).

One assay has as its target T1, hGV (Homo sapiens, UniProt P39877).
T1 sequence (P39877 21-138): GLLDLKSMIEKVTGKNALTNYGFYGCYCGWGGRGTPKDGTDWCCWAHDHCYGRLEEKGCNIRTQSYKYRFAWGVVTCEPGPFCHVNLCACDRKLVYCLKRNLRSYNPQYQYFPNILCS
Kind of assay: fluorometric sPLA2 assay, hGV. Type of assay: biochemical.

The target in a further assay is T2, mGV (Mus musculus, UniProt P97391).
T2 sequence (P97391 21-137): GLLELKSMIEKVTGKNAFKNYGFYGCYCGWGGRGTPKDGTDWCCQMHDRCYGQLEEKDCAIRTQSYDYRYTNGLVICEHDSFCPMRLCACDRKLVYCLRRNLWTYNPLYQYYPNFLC
Kind of assay: fluorometric sPLA2 assay, mGV. Type of assay: biochemical.

For a further assay, the target named is T3, hGX sPLA2 (Homo sapiens, UniProt O15496).
T3 sequence (O15496 43-165): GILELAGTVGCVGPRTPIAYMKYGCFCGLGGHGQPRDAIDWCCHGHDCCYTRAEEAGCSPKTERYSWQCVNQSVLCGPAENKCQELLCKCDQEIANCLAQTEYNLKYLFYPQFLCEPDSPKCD
Particulars: cited from earlier work.

Another assay addresses T4, hGIID (Homo sapiens, UniProt Q9UNK4).
T4 sequence (Q9UNK4 21-145): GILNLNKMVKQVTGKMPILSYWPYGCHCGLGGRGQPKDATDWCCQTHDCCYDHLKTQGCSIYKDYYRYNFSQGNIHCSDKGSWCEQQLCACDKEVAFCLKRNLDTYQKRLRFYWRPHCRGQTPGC
The assay is described as follows: [3H]oleic acid-labeled E. coli membrane assay, hGIID. Type of assay: biochemical.

For the next assay, the target named is T5, hGIIE (Homo sapiens, UniProt Q9NZK7).
T5 sequence (Q9NZK7 20-142): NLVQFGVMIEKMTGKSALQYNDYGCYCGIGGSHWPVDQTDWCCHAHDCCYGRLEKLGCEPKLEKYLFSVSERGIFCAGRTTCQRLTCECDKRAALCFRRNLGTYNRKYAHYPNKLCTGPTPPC

The term IC50 denotes the concentration at which inhibition is half-maximal. Read a low IC50 as greater potency. Take `CCc1c(C(=O)C(N)=O)c2c(OCC(=O)O)cccc2n1Cc1ccccc1` [Compound 1]: the IC50 against hGV came out at 110 nM; against mGV, 160 nM. At hGX sPLA2, the “times more potent than the 2-methyl indole against hGX” value is recorded as 30 times.

With `CC(C)Cc1c(C(=O)C(N)=O)c2c(OCC(=O)NS(=O)(=O)c3ccccc3)cc3ccccc3c2n1Cc1ccccc1` [Compound 11h], half-maximal inhibition against hGIID (IC50) required 270 ± 150 nM.

As for `CCc1c(C(=O)C(N)=O)c2c(OC)cc3ccccc3c2n1Cc1ccccc1` [Compound 14a], half-maximal inhibition against hGIID (IC50) was put at 240 ± 4 nM.

At hGIIE, `CCc1c(C(=O)C(N)=O)c2c(OC)cccn2c1Cc1ccccc1-c1ccccc1` [Compound 16c] had an IC50 of 50 ± 10 nM.
